Assay results from paper PMC9501280, “Anti-Inflammatory Activity of Soluble Epoxide Hydrolase Inhibitors Based on Selenoureas Bearing an Adamantane Moiety” (International Journal of Molecular Sciences, 2022).

Key:
[1] = tested on: LPS-stimulated C57bl/6j peritoneal macrophages; assay: Suppression of NO synthesis in LPS-stimulated peritoneal macrophages (Griess); type: cell-based, mice
Text: For screening designed compounds according to their probable ability to limit inflammation, we used a test on the inhibition of LPS-induced activation of primary murine macrophages. The most prominent anti-inflammatory activity, defined as the suppression of nitric oxide synthesis by LPS-stimulated macrophages, was evident for compounds 4a and 5b. At the same time, for 4a, the cytotoxic concentration was 4.7–18.4 times higher than the effective anti-inflammatory concentration. […] According to the data obtained, there is no direct correlation between the efficiency of the inhibition of sEH and NO synthesis, which requires further studies of the anti-inflammatory activity of the investigated compounds.
Peritoneal macrophages (PM) were isolated from the peritoneal exudate of 30 male C57bl/6j mice. To accumulate PM, 1 mL of 3% peptone solution was injected intraperitoneally. After 3 days, the mice were euthanized by cervical dislocation. Cells of peritoneal exudate were obtained by aseptic washing of the abdominal cavity with 5 mL of sterile Hanks’s solution (+4–6 °C) without calcium and magnesium ions. The total number and viability of cells were assessed in a Goryaev counting chamber (Russia) with a 0.4% trypan blue staining (Sigma-Aldrich, St. Louis, MO, USA). The cell concentration was adjusted to 1.0 × 10^6 cells/mL in DMEM (Gibco) supplemented with 2 mM L-glutamine (Gibco), 10% heat-inactivated fetal bovine serum (BioClot, Passau, Germany), 100 U/mL penicillin and […] streptomycin (Gibco) and plated 200 μL/well in 96-well transparent plates (SPL Life Sciences Co., Ltd., Pochon, Korea). After 2 h at 37 °C in a humidified atmosphere with 5% CO2, wells were washed to remove nonadherent cells. After 24 h of incubation, 20 μL of the supernatants were substituted with 20 μL of solutions of the test compounds, followed with E. coli O127:B8 LPS (100 ng/mL final concentration) after 30 min. Experiments were run in 3 independent replicates.
The accumulation of nitrite anion (a stable decomposition product of NO produced by iNOS) in the supernatants was determined using a standard Griess reagent. Briefly, 50 μL of supernatants collected 22 h after incubation of PM with the test and control compounds were mixed with 50 μL of 1% sulfonamide in 2.5% H3PO4 and 50 μL of 0.1% N-(1-naphthyl) ethylenediamine in 2.5% H3PO4. After incubation at 23 °C for 10 min. in an orbital shaker, the optical density was determined at a wavelength of 550 nm with a microplate reader Infinite M200 PRO (Tecan, Austria).

B. subtilis 168 pNK-DinC = assay: Lux-biosensor, SOS response (PdinC); type: cell-based, Bacillus subtilis; details: compounds 1 μM to 1 mM; Standard = Mitomycin C 30 μM
Experimental: (§1) The study was carried out with use of the following whole-cell bacterial biosensors: Escherichia coli MG1655 pOxyR-lux, E. coli MG1655 pDps, E. coli MG1655 pSoxS-lux, E. coli MG1655 pColD-lux, E. coli MG1655 pAlkA-lux, E. coli MG1655 pXen7, Bacillus subtilis 168 pNK-AlkA, B. subtilis 168 pNK-MrgA and B. subtilis 168 pNK-DinC. These biosensors by the quantitation of bacterial stress promoters’ activity, make it possible to determine oxidative stress caused by hydrogen peroxide and the superoxide anion radical, SOS response, DNA alkylation, or general toxicity in Gram-positive and Gram-negative B. subtilis and E. coli cells. We used concentrations from 1 μM to 1 mM of the studied compounds added to the suspension of biosensor cells. […]
(§2) The bioluminescence of cells was measured using a Synergy HT luminometer (Biotek, Winooski, VT, USA) at room temperature. Lux biosensors based on E. coli were grown to an early logarithmic phase (OD ≈ 0.1) to achieve a background luminescence approximately 100–1000 RLU at the beginning of the measurements. Lux biosensors based on B. subtilis were grown to a logarithmic phase with an optical density OD ≈ 0.6 (and background luminescence of about 10–500 RLU). […] The kinetics of change in luminescence was measured at room temperature. […]

B. subtilis 168 pNK-MrgA = assay: Lux-biosensor, hydrogen peroxide (PmrgA); type: cell-based, Bacillus subtilis; details: compounds 1 μM to 1 mM; Standard = hydrogen peroxide 100 μM
Experimental: as §1, §2

E. coli MG1655 pSoxS-lux = assay: Lux-biosensor, superoxide anion radicals (PsoxS); type: cell-based, Escherichia coli; details: compounds 1 μM to 1 mM; Standard = methyl viologen 100 μM
Experimental: as §1, §2

| SMILES | NO synthesis inhibition (in words) ([1]; LPS-stimulated macrophages) | max(Kind), B. subtilis 168 pNK-DinC (B. subtilis 168 pNK-DinC) | max(Kind), B. subtilis 168 pNK-MrgA (B. subtilis 168 pNK-MrgA) | max(Kind), E. coli MG1655 pSoxS-lux (E. coli MG1655 pSoxS-lux) | cytotoxic concentration versus effective anti-inflammatory concentration ([1]; CC50 (MTT, LDH) over NO synthesis IC50, peritoneal macrophages) | IC50 ([1]; Mus musculus, Peritoneal macrophage, 22 h, read-out: NO Synthesis, IC50 ± SE) [µM] |
| --- | --- | --- | --- | --- | --- | --- |
| [Se]=C(Nc1ccccc1)NC1C2CC3CC(C2)CC1C3 (stereo not drawn) [4g, 1-(Adamantan-2-yl)-3-phenylselenourea] | able to inhibit sEH but not NO synthesis | 1.1 ± 0.3 | 1.2 ± 0.3 | 1.0 ± 0.1 |  |  |
| [Se]=C(Nc1ccccc1)NC12CC3CC(CC(C3)C1)C2 [4a, 1-(Adamantan-1-yl)-3-phenylselenourea] |  | 1.1 ± 0.4 | 1.2 ± 0.5 | 1.16 ± 0.19 | 4.7–18.4 times | 1.6 ± 0.2 |
